What was measured:
DIPGX29 [1] = H3.3 K27M diffuse intrinsic pontine glioma line; assay: EC50 (inflection of fitted growth-inhibition curve) (log10 M)
How it was run: (§1)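 EC50 and maximal response (yFin) were derived from the lowest-AICc fit, either three- or four-parameter log-logistic. The data were pooled CellTiter-Glo luminescence values, log2-transformed and normalised per plate to % activity between negative (solvent) and positive controls. Patient-derived pHGG/DIPG cell lines and astrocyte controls on 1% Geltrex-coated 384-well plates received a 10-point threefold dilution series (mean top concentration 35 μM) by pin tool, in triplicate, for 7 days (iAstro 3 days) at 37 °C, 5% CO2.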

DIPGX37 [2] = H3.3 K27M diffuse intrinsic pontine glioma line; assay: as above
How it was run: as §1

HGGX39 [3] = paediatric high-grade glioma line; assay: as above
How it was run: as §1

HGGX6 [4] = H3.3 G34R paediatric high-grade glioma line; assay: as above
How it was run: as §1

DIPGX29 [5] = assay: maximal growth inhibition (yFin) relative to DMSO / staurosporine; higher = more efficacious
How it was run: as §1

DIPGX37 [6] = assay: as above
How it was run: as §1

HGGX39 [7] = assay: as above
How it was run: as §1

HGGX6 [8] = assay: as above
How it was run: as §1

DIPGX29 [9] = assay: area under dose-response curve of % growth inhibition (log2 RLU vs DMSO / staurosporine), 1e-11 to 1e-4 M (% x log10 M); higher = more growth inhibition
How it was run: (§2)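 Cells were exposed in triplicate for 7 days (iAstro: 3 days) at 37 °C, 5% CO2 to a 10-point series of threefold dilutions with a mean top concentration of 35 μM. These were patient-derived pHGG/DIPG lines plus astrocytes, grown on 384-well plates coated with 1% Geltrex. Readout was CellTiter-Glo luminescence, log2-transformed and set per plate to % activity between solvent and positive controls, from which area under the curve was derived by trapezoid rule on a log-logistic fit or, failing that, a smoothing spline.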

DIPGX37 [10] = assay: as above
How it was run: as §2

HGGX39 [11] = assay: as above
How it was run: as §2

HGGX6 [12] = assay: as above
How it was run: as §2

SMILES	EC50 (log10 M) (DIPGX29 [1])	EC50 (log10 M) (DIPGX37 [2])	EC50 (log10 M) (HGGX39 [3])	EC50 (log10 M) (HGGX6 [4])	maximal growth inhibition (DIPGX29 [5])	maximal growth inhibition (DIPGX37 [6])	maximal growth inhibition (HGGX39 [7])	maximal growth inhibition (HGGX6 [8])	area under dose-response curve (DIPGX29 [9])	area under dose-response curve (DIPGX37 [10])	area under dose-response curve (HGGX39 [11])	area under dose-response curve (HGGX6 [12])
CCCCCCCCOc1ccccc1C(=O)Nc1ccc(C(=O)OCC[N+](C)(CC)CC)cc1 [OTILONIUM]	-4.75	-4.86	-4.96	-4.88	22.4%	26.4%	77.5%	69.5%	16.8	22.7	74.2	61.2
CCN(CC)CCOCCOC(=O)C(CC)(CC)c1ccccc1 [OXELADIN]	-4.79	-4.88	-4.84	-4.83	25.1%	34.4%	64.4%	28.2%	19.7	35.4	59.1	28.1
CN(C(=O)CN(CCO)CC(=O)N(C)C(C)(C)Cc1ccccc1)C(C)(C)Cc1ccccc1 [OXETHAZAINE]	-4.81	-4.8	-4.81	-4.82	77.7%	82.1%	88.2%	47.3%	63	65.5	71.1	38.4
N=C(N)c1ccc(OCCCCCOc2ccc(C(=N)N)cc2)cc1 [PENTAMIDINE]	-5.15	-5.08	-6.05	-5.4	38.4%	31.7%	32.4%	33.1%	55.6	50	66.5	45.3
COc1cc2nc(N3CCN(C(=O)c4ccco4)CC3)nc(N)c2cc1OC [PRAZOSIN]	-4.88	-4.92	-4.9	-5.03	75.3%	75.4%	74.7%	75%	66.6	75.3	66.9	76.9
COc1cc(NC(C)CCCN)c2ncccc2c1 (stereo unspecified) [PRIMAQUINE]	-5.69	-5.5	-5.5	-5.38	72.2%	72.9%	75.8%	78%	131	116	113	107
NCCOc1cc(C(=O)Nc2cc(OCCN)c3ccccc3n2)nc(C(=O)Nc2cc(OCCN)c3ccccc3n2)c1 [PYRIDOSTATIN]	-5.01	-5	-4.99	-5.03	61%	31.7%	59.6%	56.9%	74	54	58.1	82.2
[O-][n+]1ccccc1[S-].[O-][n+]1ccccc1[S-].[Zn+2] [PYRITHIONE ZINC]	-5.6	-5.23	-5.61	-5.55	82.5%	93.1%	83.5%	75.7%	130	112	135	116
CCN(CC)CCCC(C)Nc1c2ccc(Cl)cc2nc2ccc(OC)cc12 (stereo unspecified) [QUINACRINE]	-4.79	-4.78	-4.75	-4.97	74.8%	72.4%	74.3%	74.3%	79.9	56	55.7	73.7
O=C(c1ccc(OCCN2CCCCC2)cc1)c1c(-c2ccc(O)cc2)sc2cc(O)ccc12 [RALOXIFENE]	-4.93	-4.93	-4.93	-4.88	68.3%	73.5%	73.2%	73.2%	63.5	68.2	67.7	64.5
CNC(=O)c1cc(Oc2ccc(NC(=O)Nc3ccc(Cl)c(C(F)(F)F)c3)c(F)c2)ccn1 [REGORAFENIB]	-4.87	-5.37	-5.33	-5.33	37.6%	43.5%	33.2%	38%	39.5	62.5	55.2	70.8
O=C(CCCCCCNC(=O)c1cnc(N(c2ccccc2)c2ccccc2)nc1)NO [ROCILINOSTAT]	-4.94	-4.87	-4.96	-4.9	62.1%	39.7%	26.8%	39.1%	63.1	60.5	25.7	49.1
Cc1ccc(NC2=CC(=O)c3sc(C)nc3C2=O)cc1 [RYUVIDINE]	-6.12	-5.7	-5.76	-6.18	97.5%	110%	98.1%	90.5%	207	187	169	197
CC[C@@H](C(=O)[C@@H](C)[C@@H](O)[C@H](C)[C@@H]1O[C@@H]([C@@H](CC)C(=O)O)CC[C@@H]1C)[C@H]1O[C@]2(C=C[C@@H](O)[C@]3(CC[C@@](C)([C@H]4CC[C@](O)(CC)[C@H](C)O4)O3)O2)[C@H](C)C[C@@H]1C [SALINOMYCIN]	-5.32	-6.53	-6.01	-5.03	69.7%	62.6%	73.9%	60.5%	106	153	153	85.6
Clc1ccc(C(Cn2ccnc2)OCc2csc3c(Cl)cccc23)c(Cl)c1 (stereo unspecified) [SERTACONAZOLE]	-4.81	-4.87	-4.95	-4.82	64.2%	84.7%	61.9%	62.2%	51.2	73.6	72.3	50.7
CN[C@H]1CC[C@@H](c2ccc(Cl)c(Cl)c2)c2ccccc21 [SERTRALINE]	-4.86	-4.82	-4.83	-4.79	85.3%	86.5%	91.4%	81%	73.3	70	83.8	63.3
CNC(=O)c1cc(Oc2ccc(NC(=O)Nc3ccc(Cl)c(C(F)(F)F)c3)cc2)ccn1 [SORAFENIB]	-4.82	-4.9	-4.96	-4.9	57.2%	79%	80.4%	75.3%	46.9	104	77	77.2
Cc1nc(-c2cccnc2)sc1C(=O)Nc1ccccc1-c1cn2c(CN3CCOCC3)csc2n1 [SRT2104]	-5.16	-5.24	-4.84	-5.21	69%	68.5%	72.4%	67.3%	79.7	101	60.9	80.8
Clc1ccc(CSC(Cn2ccnc2)c2ccc(Cl)cc2Cl)cc1 (stereo unspecified) [SULCONAZOLE]	-4.86	-4.68	-4.87	-4.87	45.9%	61.3%	34.1%	44.1%	48.2	41.8	39.2	44.2
Cc1nc(-c2cn3c(n2)-c2ccc(-c4cnn(C(C)(C)C(N)=O)c4)cc2OCC3)n(C(C)C)n1 [TASELISIB]	-5.8	-6.36	-5.49	-6.13	63.3%	56.7%	47.5%	38.8%	122	138	74.8	86
COc1cc([C@@H]2c3cc4c(cc3[C@@H](O[C@@H]3O[C@@H]5CO[C@@H](c6cccs6)O[C@H]5[C@H](O)[C@H]3O)[C@H]3COC(=O)[C@H]23)OCO4)cc(OC)c1O [TENIPOSIDE]	-6.01	-5.43	-5.94	-5.36	33.5%	50.7%	37.6%	31.2%	63.2	81.2	75.2	42.9
Clc1ccc(C(Cn2ccnc2)OCc2ccsc2Cl)c(Cl)c1 (stereo unspecified) [TIOCONAZOLE]	-4.77	-4.73	-4.79	-4.82	48.3%	78%	65.3%	46.3%	36.4	56	51.3	38.1
CN1CCN(CCCN2c3ccccc3Sc3ccc(C(F)(F)F)cc32)CC1 [TRIFLUOPERAZINE]	-4.89	-4.88	-4.86	-4.78	82.9%	87.2%	90.3%	80.2%	74.2	76.8	87.4	62.3
COc1cc2nc(N3CCCC3)nc(NCCCCCN3CCCC3)c2cc1OC [UNC0379]	-4.88	-5.05	-4.89	-4.91	71.8%	71.5%	72.1%	70.1%	70.8	75.1	69.3	73.6
COc1cc2c(NC3CCN(C(C)C)CC3)nc(N3CCC(F)(F)CC3)nc2cc1OCCCN1CCCC1 [UNC0642]	-4.96	-5.19	-4.84	-5.05	74.9%	70.6%	74.9%	72.8%	71.3	96	62.5	75.5
CCCc1cc(C)[nH]c(=O)c1CNC(=O)c1cc(-c2ccc(N3CCN(C(C)C)CC3)nc2)cc2c1cnn2C(C)C [UNC1999]	-5.02	-5.18	-4.92	-5.11	73.8%	73.8%	76.4%	72.5%	75	85.9	70.2	83.6
COc1cc2/c(=N/c3ccc(Br)cc3F)nc[nH]c2cc1OCC1CCN(C)CC1 [VANDETANIB]	-4.74	-4.7	-4.75	-4.7	80.7%	80.9%	80.4%	77.1%	68.7	65.1	60.3	54.2
O=C(CCCCCCC(=O)Nc1ccccc1)NO [VORINOSTAT]	-4.98	-4.65	-4.71	-4.68	74.2%	68%	64.3%	76.9%	77.5	58.2	60.1	83.9
